Experimental data from US11510993B2, “Antibody drug conjugate for anti-inflammatory applications” (Merck Sharp & Dohme Corp., priority 2015, dated 2022).

Assays:
[1] = Solubility of drug-linkers in 20% MeCN/H2O; format: physicochemical; conditions: tested at a concentration of 10 mg/mL
Experimental: The solubility of exemplary drug-linker conjugates in aqueous solutions was evaluated. Linkers utilized in drug conjugates may have aqueous solubility to enable conjugation in aqueous media amenable to protein solubilization. Furthermore, linkers with aqueous solubility are considered hydrophilic, and may confer to the drug conjugate a reduced propensity to aggregate relative to standard hydrophobic linkers in the literature. The following exemplary drug-linkers were tested in an aqueous solution comprising 20% acetonitrile (MeCN/H2O) for solubility at a concentration of 10 mg/mL.

[2] = In vitro stability of drug-linkers in human whole blood (parent and released dexamethasone, LC-MS/MS); conditions: 37° C.
Experimental: General Experimental Procedure Human Blood Incubation Human blood was collected the morning of the experiment from at least 3 individuals using K2EDTA as the anticoagulant. An equal volume from each individual was combined for use in the experiment. The experiment started no more than 2 hours after the blood collection. All drug-linker conjugates were solubilized in DMSO to form each 10 mM stock solution. Dosing solution for each linker was prepared by serial dilution of each stock solution using 1:3 acetonitrile:water. All solutions were kept on ice during the experiment.
Human blood was pre-warmed in a 37° C. water bath in an appropriate volume to collect samples over a time course from 0 through 6 hours. Incubating blood was mixed well just prior to sampling to give a homogenous mixture. Aliquots of blood were removed at appropriate time points, added to cold stopping solution, which was methanol containing an appropriate internal standard, and mixed rigorously. The samples were centrifuged at 4000 RPM for 10 minutes after which equal volumes of the supernatant fractions were diluted with cold deionized water. The samples were then ready for analysis.
(§1) A Thermo LX-2 ultra-performance liquid chromatography system coupled with a Sciex API5000 triple quadrupole mass spectrometer was used for the analysis. The payload and drug-linkers were retained and separated by a C18 column and detected by the mass spectrometer. […] Samples were kept in cold stack set at 5° C.

[3] = In vitro stability of drug-linkers in rat liver lysosomal lysate (parent and released dexamethasone, LC-MS/MS)
Experimental: Rat Liver lysosomes were available commercially with a pool of 6 animals. All linker compounds were solubilized in DMSO to form each 10 mM stock solution. Dosing solution for each linker was prepared by serial dilution of each stock solution using 1:3 acetonitrile: water. All solutions were kept on ice during the experiment.
Rat lysosomes were pre-warmed in a 37° C. water bath in an appropriate volume to collect samples over a time course from 0 minutes through 6 hours. Incubating lysosomes were mixed well just prior to sampling to give a homogenous mixture. Aliquots of lysosomes were removed at appropriate time points, added to cold stopping solution, which was methanol containing an appropriate internal standard, and mixed rigorously. The samples were centrifuged at 4000 RPM for 10 minutes after which equal volumes of supernatant were diluted with cold deionized water. The samples were ready for analysis.
as §1

In the case of C[C@@H]1C[C@H]2[C@@H]3CCC4=CC(=O)C=C[C@]4(C)[C@@]3(F)[C@@H](O)C[C@]2(C)[C@@]1(O)C(=O)COP(=O)(O)Oc1ccc(NC(=O)COC2C#CCCCCC2)cc1 (stereo partly drawn) [Drug Linker 5-3, 4-(2-(cyclooct-2-yn-1-yloxy)acetamido)phenyl (2-((8S,9R,10S,11S,13S,14S,16R,17R)-9-fluoro-11,17-dihydroxy-10,13,16-trimethyl-3-oxo-6,7,8,9,10,11,12,13,14,15,16,17-dodecahydro-3H-cyclopenta[a]phenanthren-17-yl)-2-oxoethyl) hydrogen phosphate], the “Measured Solubility in 20% MeCN/H2O” value [1] was >10000 µg/mL, the “Calculated Conc. for each compound in human whole blood” value ([2]; 0 m) was 1299 nM and the “Calculated Conc. for each compound in human whole blood” value ([2]; 5 m) was 1251 nM. For the same compound, the “Calculated Conc. for each compound in human whole blood” value ([2]; 15 m) was 1276 nM, the “Calculated Conc. for each compound in human whole blood” value ([2]; 30 m) was 1111 nM and the “Calculated Conc. for each compound in human whole blood” value ([2]; 1 hr) was 937 nM. For the same compound, the “Calculated Conc. for each compound in human whole blood” value ([2]; 2 hr) was 1480 nM, the “Calculated Conc. for each compound in rat lysomal lysate” value ([3]; 0 m, 37° C.) was 1394.08 nM and the “Calculated Conc. for each compound in rat lysomal lysate” value ([3]; 5 m, 37° C.) was 1295.86 nM. The “Calculated Conc. for each compound in rat lysomal lysate” value ([3]; 10 m, 37° C.) was 1278.4 nM, the “Calculated Conc. for each compound in rat lysomal lysate” value ([3]; 15 m, 37° C.) was 1407.73 nM and the “Calculated Conc. for each compound in rat lysomal lysate” value ([3]; 30 m, 37° C.) was 1175.39 nM. For the same compound, the “Calculated Conc. for each compound in rat lysomal lysate” value ([3]; 1 hr, 37° C.) was 970.65 nM, the “Calculated Conc. for each compound in rat lysomal lysate” value ([3]; 2 hr, 37° C.) was 743.45 nM and the “Calculated Conc. for each compound in rat lysomal lysate” value ([3]; 3 hr, 37° C.) was 500.41 nM. For the same compound, the “Calculated Conc. for each compound in rat lysomal lysate” value ([3]; 6 hr, 37° C.) was 221.03 nM, the “Calculated Conc. for each compound in rat lysomal lysate” value ([3]; Matrix spiking (lysosomes pretreated with stopping reagent)) was 2555.29 nM and the “rate of dexamethasone release in rat lysosomal extract (in words)” value ([3]; compared with 3-4, 5-3 releasing faster than 4-3) was “more slowly released”.
